Key:
SETVI (Foxtail, Green) [1] = assay: Postemergence herbicidal evaluation; assay type: in vivo, Setaria viridis; conditions: postemergence
Outline: (§1)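 Two-week seedlings sprayed postemergence at 40 psi; formulation: 1:1 acetone/water, 0.5% TWEEN 20; application ≈0.0156–0.500 kg/ha. Greenhouse grow-out, then 0–9 visual scoring at 4–5 weeks.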

[2] = test system: ECHORC (Watergrass (Calif.)); assay: Preemergence weed control under flooded paddy conditions; assay type: in vivo, Echinochloa oryzoides; conditions: rated 3-4 weeks after treatment
Outline: (§2)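 Silt loam, seeds in top 0.5 cm; flood held 1.5-3 cm; test cpd as acetone/water 50/50 into flood water, ~0.0313-0.500 kg/ha a.i.; greenhouse 3-4 wk; visual 0-9 score vs control.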

SETVI (Foxtail, Green) [3] = assay: Preemergence herbicidal evaluation; assay type: in vivo, Setaria viridis; conditions: rated 4-5 weeks after treatment, rating scale 0-9
Description: (§3) Results of herbicide evaluation are expressed on a rating scale (0-9). The scale is based upon a visual observation of plant stand, vigor, malformation, size, chlorosis and overall plant appearance as compared with a control.
(§4) The preemergence herbicidal activity of the test compounds of the present invention is exemplified by the following tests in which the seeds of a variety of monocotyledonous and dicotyledonous plants are separately mixed with potting soil and planted on top of approximately one inch of soil in separate pint cups. After planting, the cups are sprayed with the selected aqueous acetone solution containing test compound in sufficient quantity to provide the equivalent of about 0.0156 to 0.500 kg per hectare of test compound per cup. The treated cups are then placed on greenhouse benches, watered and cared for in accordance with conventional greenhouse procedures. From four to five weeks after treatment, the tests are terminated and each cup is examined and rated according to the rating system provided in Example 37.
(§5) The compounds evaluated are reported by compound number given in Example 37.

GALAP (Galium) = assay: Postemergence herbicidal evaluation; assay type: in vivo, Galium aparine; conditions: postemergence
Outline: as §1

ECHCG (Barnyardgrass) = assay: Preemergence herbicidal evaluation; assay type: in vivo, Echinochloa crus-galli; conditions: rated 4-5 weeks after treatment, rating scale 0-9
Description: as §3, §4, §5

[4] = test system: TRZAWR (Wheat, Winter, cv Riband); assay: Postemergence herbicidal evaluation; assay type: in vivo, Triticum aestivum; conditions: postemergence
Outline: as §1

MOOVA (Monochoria) = assay: Preemergence weed control under flooded paddy conditions; assay type: in vivo, Monochoria vaginalis; conditions: rated 3-4 weeks after treatment
Outline: as §2

[5] = test system: IPOHE (Morningglory, Ivyleaf); assay: Preemergence herbicidal evaluation; assay type: in vivo, Ipomoea hederacea; conditions: rated 4-5 weeks after treatment, rating scale 0-9
Outline: (§6)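 Seeds were planted in potting soil in cups, then sprayed preemergence with the test compound in aqueous acetone at about 0.0156 to 0.500 kg per hectare. Cups were kept under greenhouse conditions and visually rated 4–5 weeks after treatment on a 0–9 scale against an untreated control.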

CYPIR (Rice Flatsedge) = assay: Preemergence weed control under flooded paddy conditions; assay type: in vivo, Cyperus iria; conditions: rated 3-4 weeks after treatment
Outline: as §2

ZEAMX (Corn, Field) = assay: Preemergence herbicidal evaluation; assay type: in vivo, Zea mays; conditions: rated 4-5 weeks after treatment, rating scale 0-9
Description: as §3, §4, §5

ABUTH (Velvetleaf) = assay: Preemergence herbicidal evaluation; assay type: in vivo, Abutilon theophrasti; conditions: rated 4-5 weeks after treatment, rating scale 0-9
Outline: as §6

[6] = test system: IPOHE (Morningglory, Ivyleaf); assay: Postemergence herbicidal evaluation; assay type: in vivo, Ipomoea hederacea; conditions: postemergence
Outline: as §1

## Cc1ccc(CN2C(=O)CSC2=Nc2cc(-n3c(=O)cc(C(F)(F)F)n(C)c3=O)c(F)cc2Cl)cc1C [Compound 147, 3-{4-Chloro-5-{[3-(3,4-dimethylbenzyl)-4-oxo-2-thiazolidinylidene]amino}-2-fluorophenyl}-1-methyl-6-(trifluoromethyl)-2,4(1H,3H)-pyrimidinedione]
SETVI (Foxtail, Green) [1]; rate 0.0156 kg/ha
  herbicidal rating SETVI: 1.0
SETVI (Foxtail, Green) [1]; rate 0.0313 kg/ha
  herbicidal rating SETVI: 1.0
SETVI (Foxtail, Green) [1]; rate 0.0625 kg/ha
  herbicidal rating SETVI: 2.0
[2]; 0.0313 kg/ha
  herbicidal effect rating, ECHORC: 5.0
[2]; 0.0625 kg/ha
  herbicidal effect rating, ECHORC: 7.0
[2]; 0.1250 kg/ha
  herbicidal effect rating, ECHORC: 9.0
[2]; 0.2500 kg/ha
  herbicidal effect rating, ECHORC: 9.0
SETVI (Foxtail, Green) [3]; rate 0.0156 kg/ha
  Preemergence herbicidal rating SETVI: 1.0
SETVI (Foxtail, Green) [3]; rate 0.0313 kg/ha
  Preemergence herbicidal rating SETVI: 0.0
SETVI (Foxtail, Green) [3]; rate 0.0625 kg/ha
  Preemergence herbicidal rating SETVI: 0.0
SETVI (Foxtail, Green) [3]; rate 0.1250 kg/ha
  Preemergence herbicidal rating SETVI: 1.0
SETVI (Foxtail, Green) [3]; rate 0.2500 kg/ha
  Preemergence herbicidal rating SETVI: 4.0
GALAP (Galium); rate 0.0156 kg/ha
  herbicidal rating GALAP: 0.0
GALAP (Galium); rate 0.0313 kg/ha
  herbicidal rating GALAP: 1.0
GALAP (Galium); rate 0.0625 kg/ha
  herbicidal rating GALAP: 3.0
ECHCG (Barnyardgrass); rate 0.0156 kg/ha
  Preemergence herbicidal rating ECHCG: 0.0
ECHCG (Barnyardgrass); rate 0.0313 kg/ha
  Preemergence herbicidal rating ECHCG: 0.0
ECHCG (Barnyardgrass); rate 0.0625 kg/ha
  Preemergence herbicidal rating ECHCG: 0.0
ECHCG (Barnyardgrass); rate 0.1250 kg/ha
  Preemergence herbicidal rating ECHCG: 0.0
ECHCG (Barnyardgrass); rate 0.2500 kg/ha
  Preemergence herbicidal rating ECHCG: 0.0
[4]; rate 0.0156 kg/ha
  herbicidal rating TRZAWR: 2.5
[4]; rate 0.0313 kg/ha
  herbicidal rating TRZAWR: 3.5
[4]; rate 0.0625 kg/ha
  herbicidal rating TRZAWR: 4.0
MOOVA (Monochoria); 0.0313 kg/ha
  herbicidal effect rating, MOOVA: 7.0
MOOVA (Monochoria); 0.0625 kg/ha
  herbicidal effect rating, MOOVA: 9.0
MOOVA (Monochoria); 0.1250 kg/ha
  herbicidal effect rating, MOOVA: 9.0
MOOVA (Monochoria); 0.2500 kg/ha
  herbicidal effect rating, MOOVA: 9.0
[5]; rate 0.0156 kg/ha
  Preemergence herbicidal rating IPOHE: 0.0
[5]; rate 0.0313 kg/ha
  Preemergence herbicidal rating IPOHE: 0.0
[5]; rate 0.0625 kg/ha
  Preemergence herbicidal rating IPOHE: 0.0
[5]; rate 0.1250 kg/ha
  Preemergence herbicidal rating IPOHE: 0.0
[5]; rate 0.2500 kg/ha
  Preemergence herbicidal rating IPOHE: 0.0
CYPIR (Rice Flatsedge); 0.0313 kg/ha
  herbicidal effect rating, CYPIR: 4.0
CYPIR (Rice Flatsedge); 0.0625 kg/ha
  herbicidal effect rating, CYPIR: 4.0
CYPIR (Rice Flatsedge); 0.1250 kg/ha
  herbicidal effect rating, CYPIR: 7.0
CYPIR (Rice Flatsedge); 0.2500 kg/ha
  herbicidal effect rating, CYPIR: 7.0
ZEAMX (Corn, Field); rate 0.0156 kg/ha
  Preemergence herbicidal rating ZEAMX: 1.0
ZEAMX (Corn, Field); rate 0.0313 kg/ha
  Preemergence herbicidal rating ZEAMX: 1.0
ZEAMX (Corn, Field); rate 0.0625 kg/ha
  Preemergence herbicidal rating ZEAMX: 0.0
ZEAMX (Corn, Field); rate 0.1250 kg/ha
  Preemergence herbicidal rating ZEAMX: 1.0
ZEAMX (Corn, Field); rate 0.2500 kg/ha
  Preemergence herbicidal rating ZEAMX: 2.0
ABUTH (Velvetleaf); rate 0.0156 kg/ha
  Preemergence herbicidal rating ABUTH: 0.0
ABUTH (Velvetleaf); rate 0.0313 kg/ha
  Preemergence herbicidal rating ABUTH: 0.0
ABUTH (Velvetleaf); rate 0.0625 kg/ha
  Preemergence herbicidal rating ABUTH: 0.0
ABUTH (Velvetleaf); rate 0.1250 kg/ha
  Preemergence herbicidal rating ABUTH: 4.0
ABUTH (Velvetleaf); rate 0.2500 kg/ha
  Preemergence herbicidal rating ABUTH: 7.0
[6]; rate 0.0156 kg/ha
  herbicidal rating IPOHE: 9.0
[6]; rate 0.0313 kg/ha
  herbicidal rating IPOHE: 9.0
[6]; rate 0.0625 kg/ha
  herbicidal rating IPOHE: 9.0

## COc1ccc(CN2C(=O)CSC2=Nc2cc(-n3c(=O)cc(C(F)(F)F)n(C)c3=O)c(F)cc2Cl)cc1OC [Compound 134, 3-{4-Chloro-5-{[3-(3,4-dimethoxybenzyl)-4-oxo-2-thiazolidinylidene]amino}-2-fluorophenyl}-1-methyl-6-(trifluoromethyl)-2,4(1H,3H)-pyrimidinedione]
SETVI (Foxtail, Green) [1]; rate 0.0156 kg/ha
  herbicidal rating SETVI: 0.0
SETVI (Foxtail, Green) [1]; rate 0.0313 kg/ha
  herbicidal rating SETVI: 0.0
SETVI (Foxtail, Green) [1]; rate 0.0625 kg/ha
  herbicidal rating SETVI: 1.0
[2]; 0.2500 kg/ha
  herbicidal effect rating, ECHORC: 2.0
SETVI (Foxtail, Green) [3]; rate 0.1250 kg/ha
  Preemergence herbicidal rating SETVI: 0.0
SETVI (Foxtail, Green) [3]; rate 0.2500 kg/ha
  Preemergence herbicidal rating SETVI: 2.0
GALAP (Galium); rate 0.0156 kg/ha
  herbicidal rating GALAP: 0.0
GALAP (Galium); rate 0.0313 kg/ha
  herbicidal rating GALAP: 1.0
GALAP (Galium); rate 0.0625 kg/ha
  herbicidal rating GALAP: 2.0
ECHCG (Barnyardgrass); rate 0.1250 kg/ha
  Preemergence herbicidal rating ECHCG: 0.0
ECHCG (Barnyardgrass); rate 0.2500 kg/ha
  Preemergence herbicidal rating ECHCG: 0.0
[4]; rate 0.0156 kg/ha
  herbicidal rating TRZAWR: 2.5
[4]; rate 0.0313 kg/ha
  herbicidal rating TRZAWR: 3.5
[4]; rate 0.0625 kg/ha
  herbicidal rating TRZAWR: 4.0
MOOVA (Monochoria); 0.2500 kg/ha
  herbicidal effect rating, MOOVA: 2.0
[5]; rate 0.1250 kg/ha
  Preemergence herbicidal rating IPOHE: 0.0
[5]; rate 0.2500 kg/ha
  Preemergence herbicidal rating IPOHE: 0.0
CYPIR (Rice Flatsedge); 0.2500 kg/ha
  herbicidal effect rating, CYPIR: 3.0
ZEAMX (Corn, Field); rate 0.1250 kg/ha
  Preemergence herbicidal rating ZEAMX: 0.0
ZEAMX (Corn, Field); rate 0.2500 kg/ha
  Preemergence herbicidal rating ZEAMX: 0.0
ABUTH (Velvetleaf); rate 0.1250 kg/ha
  Preemergence herbicidal rating ABUTH: 0.0
ABUTH (Velvetleaf); rate 0.2500 kg/ha
  Preemergence herbicidal rating ABUTH: 7.0
[6]; rate 0.0156 kg/ha
  herbicidal rating IPOHE: 3.0
[6]; rate 0.0313 kg/ha
  herbicidal rating IPOHE: 9.0
[6]; rate 0.0625 kg/ha
  herbicidal rating IPOHE: 9.0

## CSCCN1C(=O)CSC1=Nc1cc(-n2c(=O)cc(C(F)(F)F)n(C)c2=O)c(F)cc1Cl [Compound 157]
SETVI (Foxtail, Green) [1]; rate 0.0156 kg/ha
  herbicidal rating SETVI: 0.0
SETVI (Foxtail, Green) [1]; rate 0.0313 kg/ha
  herbicidal rating SETVI: 1.0
SETVI (Foxtail, Green) [1]; rate 0.0625 kg/ha
  herbicidal rating SETVI: 7.0
[2]; 0.2500 kg/ha
  herbicidal effect rating, ECHORC: 0.0
SETVI (Foxtail, Green) [3]; rate 0.0313 kg/ha
  Preemergence herbicidal rating SETVI: 0.0
SETVI (Foxtail, Green) [3]; rate 0.0625 kg/ha
  Preemergence herbicidal rating SETVI: 0.0
SETVI (Foxtail, Green) [3]; rate 0.1250 kg/ha
  Preemergence herbicidal rating SETVI: 2.0
SETVI (Foxtail, Green) [3]; rate 0.2500 kg/ha
  Preemergence herbicidal rating SETVI: 1.0
GALAP (Galium); rate 0.0156 kg/ha
  herbicidal rating GALAP: 0.0
GALAP (Galium); rate 0.0313 kg/ha
  herbicidal rating GALAP: 0.0
GALAP (Galium); rate 0.0625 kg/ha
  herbicidal rating GALAP: 2.0
ECHCG (Barnyardgrass); rate 0.0313 kg/ha
  Preemergence herbicidal rating ECHCG: 0.0
ECHCG (Barnyardgrass); rate 0.0625 kg/ha
  Preemergence herbicidal rating ECHCG: 0.0
ECHCG (Barnyardgrass); rate 0.1250 kg/ha
  Preemergence herbicidal rating ECHCG: 1.0
ECHCG (Barnyardgrass); rate 0.2500 kg/ha
  Preemergence herbicidal rating ECHCG: 0.0
[4]; rate 0.0156 kg/ha
  herbicidal rating TRZAWR: 2.5
[4]; rate 0.0313 kg/ha
  herbicidal rating TRZAWR: 3.5
[4]; rate 0.0625 kg/ha
  herbicidal rating TRZAWR: 4.0
MOOVA (Monochoria); 0.2500 kg/ha
  herbicidal effect rating, MOOVA: 0.0
[5]; rate 0.0313 kg/ha
  Preemergence herbicidal rating IPOHE: 0.0
[5]; rate 0.0625 kg/ha
  Preemergence herbicidal rating IPOHE: 0.0
[5]; rate 0.1250 kg/ha
  Preemergence herbicidal rating IPOHE: 1.0
[5]; rate 0.2500 kg/ha
  Preemergence herbicidal rating IPOHE: 2.0
CYPIR (Rice Flatsedge); 0.2500 kg/ha
  herbicidal effect rating, CYPIR: 0.0
ZEAMX (Corn, Field); rate 0.0313 kg/ha
  Preemergence herbicidal rating ZEAMX: 0.0
ZEAMX (Corn, Field); rate 0.0625 kg/ha
  Preemergence herbicidal rating ZEAMX: 0.0
ZEAMX (Corn, Field); rate 0.1250 kg/ha
  Preemergence herbicidal rating ZEAMX: 1.0
ZEAMX (Corn, Field); rate 0.2500 kg/ha
  Preemergence herbicidal rating ZEAMX: 1.0
ABUTH (Velvetleaf); rate 0.0313 kg/ha
  Preemergence herbicidal rating ABUTH: 0.0
ABUTH (Velvetleaf); rate 0.0625 kg/ha
  Preemergence herbicidal rating ABUTH: 0.0
ABUTH (Velvetleaf); rate 0.1250 kg/ha
  Preemergence herbicidal rating ABUTH: 4.0
ABUTH (Velvetleaf); rate 0.2500 kg/ha
  Preemergence herbicidal rating ABUTH: 6.0
[6]; rate 0.0156 kg/ha
  herbicidal rating IPOHE: 3.0
[6]; rate 0.0313 kg/ha
  herbicidal rating IPOHE: 7.0
[6]; rate 0.0625 kg/ha
  herbicidal rating IPOHE: 6.0
